Columns and labels:
LCMV WE strain = conditions: mouse, in vivo
LCMV nucleoprotein = format: cell-based, lymphocytic choriomeningitis virus
LCMV Armstrong strain = format: cell-based, lymphocytic choriomeningitis virus
LCMV = test: microbe, parasite or virus in culture; format: cell-based, lymphocytic choriomeningitis virus; conditions: Mammarenavirus choriomeningitidis, KB, read-out: EC50 (nM) Mean (SD) LCMV
TPMV = test: microbe, parasite or virus in culture; format: cell-based; conditions: Thottapalayam virus, HEK-293T, read-out: EC50 (nM) Mean (SD) TPMV

Row | SMILES | survival rate (LCMV WE strain) [%] | inflammatory foci in liver (pathology) (LCMV WE strain; 30 mg/kg) | serum IFN-γ levels (LCMV WE strain; 30 mg/kg) | serum TNF-α levels (LCMV WE strain; 30 mg/kg) | viral antigen in liver (IHC) (LCMV WE strain; 30 mg/kg) | LCMV nucleoprotein production (immunofluorescence) (LCMV nucleoprotein) | infectious viral particles in culture supernatants, pretreatment (LCMV Armstrong strain) | viral propagation, posttreatment (LCMV Armstrong strain) | viral titers in supernatants, pretreatment (LCMV Armstrong strain) | EC50 (LCMV) [nM] | EC50 (TPMV) [nM]
1 | NC(=O)c1ncn([C@@H]2O[C@H](CO)[C@@H](O)[C@H]2O)n1 [RBV, Ribavirin] | 20 | inflammatory foci were observed | equivalent level to the vehicle-treated mice | higher than that in compound B–treated mice | viral antigens were detected in hepatocytes | inhibited only at 1,000 nM | decreased infectious viral particles | significantly reduced viral propagation | increased |  | 
2 | O=C1c2c(O)c(=O)ccn2N([C@@H]2c3ccccc3SCc3c2ccc(F)c3F)[C@@H]2COCCN12 [BXA, baloxavir acid] |  |  |  |  |  |  |  |  |  | > 1000 | > 1000

From PMC9457168 (Proceedings of the National Academy of Sciences of the …, 2022)
